Source: patent publication US20040171795A1, “Novel peptides” (priority 2000, published 2004)

Tests used:
[1] = Measurement of CD spectrum; assay type: physicochemical; details: aqueous solution solely containing an inorganic salt, pH 7, 35° C.
Experimental: The peptide dissolved in 10 mM phosphate buffer (pH=7) containing 50 mM NaCl was evaluated for its CD spectrum in the presence and in the absence of 5 mM SDS by using a circular dichroism spectrophotometer (J-500A, manufactured by JASCO). The cell length was 1 mm. The measurement was conducted at 35° C. for 6 times in total. FIGS. 7 to 9 are respectively views showing mean residue ellipticity in CD spectroscopy of the peptide of SEQ ID NO:1, the peptide of SEQ ID NO:4 and the peptide of SEQ ID NO:16. As evident in FIGS. 7 to 9, the mean residue ellipticity obtained in the presence of SDS was the so called W curve and local minimums were found in the areas at the wavelength of 205 to 210 nm and 220 to 225 nm, and α-helix structure was thereby confirmed.

21mer oligonucleotide = experiment: Binding ability to oligonucleotide (electrophoresis); details: charge ratio (+/−ratio) of 10
Experimental: The 21mer oligonucleotide prepared by the procedure described in Example 6 (final concentration, 6.7 μM) and the peptide prepared by the procedure described in Examples 1 to 3 were mixed in 20 mM Tris-HCl buffer (pH=7.2) containing 150 mM NaCl at a charge ratio (+/−ratio) of 0 to 10, and the mixture was allowed to stand at 37° C. for 30 minutes. Next, 7.5 μL of this solution was mixed with an equal amount of Tris-borate buffer (pH=8.2) containing 80% formamide, and electrophoresis was conducted on 25% polyacrylamide gel containing 7M urea. After the electrophoresis, the gel was stained with 5% aqueous solution of Stains all (manufactured by Funakoshi) containing 50% formamide and washed with water to thereby determine the binding of the oligonucleotide and the peptide.
The +/−ratio (charge ratio) indicated in FIG. 10 is the ratio of the number (+) of the positively-charged groups in the peptide to the number (−) of negatively-charged groups in the nucleic acid. As evident in FIG. 10, the amount of oligonucleotide that became bound to the peptide increased with the increase in the charge ratio (+/−ratio), and the oligonucleotide was fully bound to the peptide at a charge ratio (+/−ratio) of 10. The peptides of SEQ ID NO:2 to SEQ ID NO:24 were also found to bind at a charge ratio (+/−ratio) of 10.

nuclease Bal 31 = experiment: Nuclease resistance-imparting ability for P=O form oligonucleotide; assay type: biochemical; details: 2 U Bal 31, 30° C., 60 minutes, peptide 50 μM, oligonucleotide 3 μM
Experimental: Nuclease resistance-imparting ability for natural (P═O form) oligonucleotide was evaluated. To be more specific, 2 U of nuclease Bal 31 (manufactured by Takara Shuzo) was added to 20 mM Tris-HCl buffer (pH=8) containing 50 μM of the peptide of SEQ ID NO:1 prepared in Example 1, 3 μM of P═O form oligonucleotide prepared in Example 6, 150 mM NaCl, 12 mM MgCl2, and 12 mM CaCl2, and the reaction was allowed to take place at 30° C. for 60 minutes. Next, the oligonucleotide which escaped from the decomposition was extracted with phenol/chloroform, and subjected to electrophoresis by the procedure described in Example 8 to stain the oligonucleotide.

A549 = experiment: Luciferase plasmid introduction versus phosphatidyl serine translocation; assay type: cell-based, human
Description: (§1) A cell line established from monkey kidney (Vero cell) and a human bladder cancer cell (T24 cell) purchased from American Type Culture Collection (ATCC) and human lung cancer cell (A549 cell) purchased from Dainippon Pharmaceutical were inoculated on a 24 well culture plate (manufactured by NALGEN NUNC) at 1×10^5 cells/well. Vero cell and A549 cell were cultivated in DMEM (manufactured by Life Technologies Oriental) supplemented with 10% fetal bovine serum (hereinafter referred to as FBS, manufactured by NICHIREI), and T24 cell was cultivated in McCoy's 5a (manufactured by Life Technologies Oriental) supplemented with 10% FBS in 5% CO2 atmosphere at 37° C. for 24 hours. […] The luciferase activity expressed in the cell was then measured by the method instructed in luciferase assay system (manufactured by Promega). […] 20 μL of this cell lysate and 100 μL of the Luciferase Assay Reagent II attached to the kit was added to a fluorescence-measuring plate (Microlite™ 1 plate, manufactured by Dynatech), and after mixing, fluorescence was measured for 1 second by using a multilabel counter (ARVO™ SY1420 MULTILABEL COUNTER, manufactured by Wallac Beltold. […]

T24 = experiment: as above; assay type: cell-based, human
Description: as §1

SEQ ID NO: 1: peptide having the amino acid sequence of SEQ ID NO:1, made by solid phase synthesis (TRYLRIHPRSWVHQIALRLRYLRIHPRSWVHQIALRS; synthetic peptide using an automatic peptide synthesizer)
α-helix structure in CD spectrum in the absence of SDS [1]: do not take α-helix structure | binding of oligonucleotide to the peptide (21mer oligonucleotide): fully bound | nuclease resistance-imparting ability for natural (P═O form) oligonucleotide (nuclease Bal 31): found to exhibit nuclease resistance-imparting ability | Luciferase activity (A549): 8.7 × 10^4 cps/mg protein | Luciferase activity (T24): 7.8 × 10^3 cps/mg protein
